{"source": "patent US9943563B2", "about": "“Compositions and methods for treating vitiligo” (Stealth Peptides International, Inc., priority 2013, dated 2018)", "key": {"[1]": {"test_system": "plasma membrane of several mammalian cell types", "conditions": "energy-independent manner; cited from earlier work"}, "[2]": {"test_system": "melanocytes from human subjects diagnosed with vitiligo (VHM)", "test": "Mitochondrial membrane potential of melanocytes (JC-1 probe)", "format": "cell-based", "conditions": "peptide at 1.5 μM and 2.0 μM added each day for 7 days, vs 0 μM and untreated NHM", "procedure": "Cultured melanocytes from each patient were divided into three groups, wherein each group was treated with D-Arg-2′,6′-Dmt-Lys-Phe-NH2 at 0 μM, 1.5 μM, and 2 μM. D-Arg-2′,6′-Dmt-Lys-Phe-NH2 added to the growth media each day for 7 days. After 7 days, mitochondrial membrane potential (ΔΨm) of the melanocytes were assessed with a JC-1 probe (see, e.g., JC-1 Mitochondrial Membrane Potential Assay Kit, Cayman Chemical Co., Ann Arbor, Mich.)."}, "[3]": {"test_system": "melanocytes from human subjects diagnosed with vitiligo (VHM)", "test": "ATP production of melanocytes (fluorimetric determination)", "format": "cell-based", "conditions": "2 μM added each day for 3 days, vs untreated (0 μM)", "procedure": "Melanocytes were isolated and cultured from two human patients diagnosed with vitiligo (VHM). Cultured melanocytes from each patient were divided into two groups, wherein each group was treated with D-Arg-2′,6′-Dmt-Lys-Phe-NH2 at 0 μM and 2 μM. D-Arg-2′,6′-Dmt-Lys-Phe-NH2 was added to the growth media each day for 3 days. After 3 days, the melanocytes were lysed and ATP levels were measures by fluorimetric determination. Each assay was performed in triplicate."}, "[4]": {"test_system": "autologous vitiligo skin explants", "test": "T-cell accumulation and cytotoxic activity in autologous vitiligo skin explants", "format": "in vivo, human", "conditions": "vitiligo patients, 0.25 mg/kg/day for twelve weeks, perilesional T-cells co-cultured with autologous skin explants 2 days", "procedure": "Active vitiligo patients are subdivided into 2 groups. Group I subjects are administered a daily dose of 0.25 mg/kg/day of D-Arg-2′,6′-Dmt-Lys-Phe-NH2 for twelve weeks whereas Group II vitiligo subjects are treated with drug vehicle and serve as controls. Punch-biopsies are obtained flanking the depigmented macule from Group I and Group II vitiligo subjects. These biopsies are cultured to promote T-cell growth according to the procedures described in Van Den Boom et al., Journal of Investigative Dermatology, 129: 2220-2232 (2009). The ability of these perilesional T-cells to infiltrate and actively kill melanocytes within the skin tissue microenvironment is tested using skin explant assays. Autologous skin explants are generated according to the procedures described in Van Den Boom et al., Journal of Investigative Dermatology, 129: 2220-2232 (2009). Perilesional T-cells are co-cultured with normally pigmented autologous skin explants for 2 days. T-cells are allowed to infiltrate the skin explants and migrate toward the melanocytes located at the dermal-epidermal junction. Skin explant cryosections are analyzed for the presence of infiltrated T-cells, melanocytes, and apoptosis by immunohistochemistry or immunofluorescence as described in Van Den Boom et al., Journal of Investigative Dermatology, 129: 2220-2232 (2009)."}, "[5]": {"test_system": "vitiligo mice", "test": "Progressive depigmentation in the pelage of the vitiligo mouse model", "format": "in vivo", "conditions": "0.25 mg/kg/day for four weeks before plucking, 2 weeks after plucking dorsal hairs, vs untreated", "procedure": "Vitiligo mice described in Lerner et al., Journal of Investigative Dermatology, 87: 299-304 (1986) are obtained. Vitiligo mice are subdivided into 2 groups. Group I mice are administered a daily dose of 0.25 mg/kg/day of D-Arg-2′,6′-Dmt-Lys-Phe-NH2 for four weeks before plucking dorsal hairs whereas Group II vitiligo mice are treated with drug vehicle before plucking. The regrowth of amelanotic hairs is monitored via light microscopy."}, "[6]": {"test_system": "adoptive transfer mouse model of vitiligo", "test": "Epidermal depigmentation in an adoptive transfer mouse model of vitiligo", "format": "in vivo", "conditions": "adoptive transfer vitiligo mice, 0.25 mg/kg/day for four weeks; tail, nose, footpad; vs untreated", "procedure": "Vitiligo mice described in Harris et al., Journal of Investigative Dermatology, 132: 1869-1876 (2012) are obtained. This adoptive transfer mouse model of vitiligo recapitulates the human condition by inducing epidermal depigmentation while sparing the hair. These mice are subdivided into 2 groups. Group I mice are administered a daily dose of 0.25 mg/kg/day of D-Arg-2′,6′-Dmt-Lys-Phe-NH2 for four weeks whereas Group II vitiligo mice are treated with drug vehicle and serve as controls. The loss of pigmentation in epidermal tissues such as the tail, nose and footpad is monitored via light microscopy."}, "[7]": {"target": "mu-opioid receptor (Homo sapiens, UniProt P35372)", "sequence (P35372 whole entry, species assumed)": "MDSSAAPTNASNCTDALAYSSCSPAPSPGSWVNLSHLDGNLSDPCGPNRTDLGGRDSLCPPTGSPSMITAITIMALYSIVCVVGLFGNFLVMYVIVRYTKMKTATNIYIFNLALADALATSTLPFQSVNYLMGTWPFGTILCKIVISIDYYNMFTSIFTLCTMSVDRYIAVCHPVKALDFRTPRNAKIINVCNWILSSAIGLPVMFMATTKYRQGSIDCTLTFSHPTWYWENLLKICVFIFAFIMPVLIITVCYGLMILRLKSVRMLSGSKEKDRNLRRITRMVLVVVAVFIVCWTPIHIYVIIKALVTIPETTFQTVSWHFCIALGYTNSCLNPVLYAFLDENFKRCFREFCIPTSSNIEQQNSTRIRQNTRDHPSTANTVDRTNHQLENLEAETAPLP", "conditions": "stated in the description, no test described; cited from earlier work"}}, "note": "“Also recorded” adds a separate entry of the source. Square brackets hold non-standard residues; d marks the D form. Ends that are not written are not given here."}
{"substance": "2′,6′-Dmt-D-Arg-Phe-Lys-NH2", "values": [{"measurement": "penetration of the plasma membrane", "setting": "[1]", "value": "readily penetrates the plasma membrane"}]}
{"substance": "D-Arg-2′,6′-Dmt-Lys-Phe-NH2", "values": [{"measurement": "mitochondrial membrane potential (ΔΨm) of VHM melanocytes", "setting": "[2]", "value": "returned the mitochondrial membrane potential of the VHM melanocytes to levels found in untreated NHM melanocytes; also recorded: increased the mitochondrial membrane potential"}, {"measurement": "mitochondrial membrane potential (ΔΨm) of VHM melanocytes", "setting": "[2]; listed as D-Arg-2′6′-Dmt-Lys-Phe-NH2", "value": "nearly doubled"}, {"measurement": "ATP production of VHM melanocytes", "setting": "[3]", "value": "elevated ATP production levels; also recorded: increased the ATP production"}, {"measurement": "melanocyte survival rates in skin explants", "setting": "[4]", "value": "greater than untreated vitiligo explants"}, {"measurement": "rate of progressive depigmentation", "setting": "[5]", "value": "reduced rate of progressive depigmentation"}, {"measurement": "severity of depigmentation in epidermal tissues", "setting": "[6]", "value": "reduced severity of depigmentation"}, {"measurement": "mu-opioid receptor agonist activity", "setting": "[7]", "value": "does not have mu-opioid receptor agonist activity"}]}
{"substance": "F[dR]FK-NH2", "values": [{"measurement": "mu-opioid receptor agonist activity", "setting": "[7]", "value": "does not have mu-opioid receptor agonist activity"}]}
{"substance": "Tyr-D-Arg-Phe-Lys-NH2", "values": [{"measurement": "mu-opioid receptor agonist activity", "setting": "[7]", "value": "has mu-opioid receptor agonist activity"}]}
